The record followed here is PMC9047634 (RSC Advances, 2019).

The target in the test is chorismate mutase (CM) (Mycobacterium tuberculosis, UniProt P9WIB9). In words: biochemical. The note with it: read-out: % Inhibition @ 30 μM ^a.
chorismate mutase (CM), sequence (P9WIB9 34-199): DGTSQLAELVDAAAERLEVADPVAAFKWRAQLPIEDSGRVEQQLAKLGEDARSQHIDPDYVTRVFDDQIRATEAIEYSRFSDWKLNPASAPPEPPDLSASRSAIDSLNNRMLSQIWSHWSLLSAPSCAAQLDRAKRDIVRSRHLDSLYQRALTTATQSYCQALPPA

For the compound `COc1ccc(CCNc2c([N+](=O)[O-])cc(C(=O)O)cc2S(N)(=O)=O)cc1OC` [G, 4-(3,4-dimethoxyphenethylamino)-3-nitro-5-sulfamoylbenzoic acid], the inhibition at 30 µM came out at 57%.
